Measured values reported in PubChem BioAssay AID248 (DTP/NCI, 2004).
Where “and” joins values, the source holds several entries; their conditions need not be identical. Identical values can stand only once. Toxic doses and inconclusive results are not listed.

Test system: L1210 leukemia ip in BDF1 mice, survival T/C
Assay: NCI In Vivo Anticancer Drug Screen. Data for tumor model L1210 Leukemia (intraperitoneal) in B6D2F1 (BDF1) mice
Conditions: endpoint: mean survival time, higher = longer survival
Outline: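 Ratio derived from survival: compound-dosed mice over vehicle-dosed mice, all bearing a transplantable tumor.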

[1] = dose: 100.0 mg/kg/injection, schedule: Q01DX001 (ip), vehicle: saline

In the case of `COC12C(COC(N)=O)C3=C(C(=O)C(C)=C(N)C3=O)N1CC1C2N1C` (centres undefined), the T/C (dose: 0.37 mg/kg/injection, schedule: Q01DX009 (ip), vehicle: saline) is reported as 106 % of control, the T/C (dose: 0.7 mg/kg/injection, schedule: Q## X040 (ip), vehicle: saline) is reported as 106 % of control and the T/C (dose: 0.75 mg/kg/injection, schedule: Q01DX009 (ip), vehicle: saline) is reported as 117 % of control. For the same compound, the T/C (dose: 1.25 mg/kg/injection, schedule: Q01DX Z (ip), vehicle: carboxymethylcellulose (CMC)) was 93 % of control, the T/C (dose: 1.4 mg/kg/injection, schedule: Q## X040 (ip), vehicle: saline) was 118 % of control and the T/C (dose: 1.5 mg/kg/injection, schedule: Q01DX009 (ip), vehicle: saline) was 121 % of control. The T/C (dose: 1.5 mg/kg/injection, schedule: Q## X003 (ip), vehicle: saline) was 117 % of control, the T/C (dose: 2.0 mg/kg/injection, schedule: Q01DX009 (ip), vehicle: Klucel (hydroxypropylcellulose) (HPC)) was 120 % of control and the T/C (dose: 2.0 mg/kg/injection, schedule: Q01DX009 (ip), vehicle: saline) was 165 % of control. For the same compound, the T/C (dose: 2.0 mg/kg/injection, schedule: Q01DX009 (sc), vehicle: saline) was 109 % of control, the T/C (dose: 2.0 mg/kg/injection, schedule: Q01DX015 (ip), vehicle: saline) was 115 % of control and 116 % of control and 121 % of control and the T/C (dose: 2.2 mg/kg/injection, schedule: Q01DX007 (ip), vehicle: carboxymethylcellulose (CMC)) was 123 % of control. For the same compound, the T/C (dose: 2.5 mg/kg/injection, schedule: Q01DX Z (ip), vehicle: carboxymethylcellulose (CMC)) was 97 % of control, the T/C (dose: 3.0 mg/kg/injection, schedule: Q01DX001 (ip), vehicle: saline) was 116 % of control and the T/C (dose: 3.0 mg/kg/injection, schedule: Q## X003 (ip), vehicle: saline) was 112 % of control. For the same compound, the T/C (dose: 3.0 mg/kg/injection, schedule: Q## X008 (ip), vehicle: saline) was 116 % of control, the T/C (dose: 3.0 mg/kg/injection, schedule: Q## X040 (ip), vehicle: saline) was 119 % of control and the T/C (dose: 3.35 mg/kg/injection, schedule: Q01DX015 (ip), vehicle: carboxymethylcellulose (CMC)) was 121 % of control. For the same compound, the T/C (dose: 3.5 mg/kg/injection, schedule: Q01DX015 (ip), vehicle: saline) was 123 % of control, the T/C (dose: 4.0 mg/kg/injection, schedule: Q## X024 (ip), vehicle: saline) was 103 % of control and the T/C (dose: 4.4 mg/kg/injection, schedule: Q## X004 (ip), vehicle: saline) was 114 % of control. For the same compound, the T/C (dose: 5.0 mg/kg/injection, schedule: Q01DX007 (ip), vehicle: carboxymethylcellulose (CMC)) was 156 % of control, the T/C (dose: 5.0 mg/kg/injection, schedule: Q01DX009 (oral), vehicle: saline) was 122 % of control and the T/C (dose: 5.0 mg/kg/injection, schedule: Q01DX015 (ip), vehicle: saline) was 122 % of control. For the same compound, the T/C (dose: 5.0 mg/kg/injection, schedule: Q01DX Z (ip), vehicle: carboxymethylcellulose (CMC)) was 123 % of control, the T/C (dose: 6.0 mg/kg/injection, schedule: Q01DX009 (ip), vehicle: saline) was 151 % of control and 164 % of control and the T/C (dose: 6.0 mg/kg/injection, schedule: Q01DX015 (ip), vehicle: carboxymethylcellulose (CMC)) was 156 % of control. The T/C (dose: 6.0 mg/kg/injection, schedule: Q## X008 (ip), vehicle: saline) was 112 % of control, the T/C (dose: 6.7 mg/kg/injection, schedule: Q## X004 (ip), vehicle: saline) was 121 % of control and the T/C (dose: 7.5 mg/kg/injection, schedule: Q01DX007 (ip), vehicle: carboxymethylcellulose (CMC)) was 158 % of control. For the same compound, the T/C (dose: 7.5 mg/kg/injection, schedule: Q01DX015 (ip), vehicle: carboxymethylcellulose (CMC)) was 163 % of control, the T/C (dose: 8.0 mg/kg/injection, schedule: Q01DX009 (ip), vehicle: saline) was 171 % of control and 176 % of control and the T/C (dose: 8.0 mg/kg/injection, schedule: Q01DX015 (ip), vehicle: saline) was 150 % of control and 153 % of control. For the same compound, the T/C (dose: 8.0 mg/kg/injection, schedule: Q## X008 (ip), vehicle: saline) was 104 % of control, the T/C (dose: 8.0 mg/kg/injection, schedule: Q## X016 (ip), vehicle: saline) was 96 % of control and the T/C (dose: 8.0 mg/kg/injection, schedule: Q## X024 (ip), vehicle: saline) was 111 % of control. For the same compound, the T/C (dose: 10.0 mg/kg/injection, schedule: Q01DX Z (ip), vehicle: carboxymethylcellulose (CMC)) was 151 % of control and 169 % of control, the T/C (dose: 11.25 mg/kg/injection, schedule: Q01DX007 (ip), vehicle: carboxymethylcellulose (CMC)) was 150 % of control and the T/C (dose: 12.0 mg/kg/injection, schedule: Q01DX009 (ip), vehicle: saline) was 153 % of control and 167 % of control. The T/C (dose: 12.0 mg/kg/injection, schedule: Q02DX008 (ip), vehicle: saline) was 154 % of control, the T/C (dose: 15.0 mg/kg/injection, schedule: Q01DX001 (ip), vehicle: saline) was 123 % of control and the T/C (dose: 15.0 mg/kg/injection, schedule: Q## X003 (ip), vehicle: saline) was 162 % of control. The T/C (dose: 15.0 mg/kg/injection, schedule: Q## X004 (ip), vehicle: saline) was 150 % of control, the T/C (dose: 16.0 mg/kg/injection, schedule: Q02DX008 (ip), vehicle: saline) was 158 % of control and the T/C (dose: 16.0 mg/kg/injection, schedule: Q## X008 (ip), vehicle: saline) was 112 % of control. The T/C (dose: 16.0 mg/kg/injection, schedule: Q## X016 (ip), vehicle: saline) was 115 % of control, the T/C (dose: 16.0 mg/kg/injection, schedule: Q## X040 (ip), vehicle: saline) was 167 % of control and the T/C (dose: 20.0 mg/kg/injection, schedule: Q01DX001 (ip), vehicle: carboxymethylcellulose (CMC)) was 165 % of control. For the same compound, the T/C (dose: 20.0 mg/kg/injection, schedule: Q01DX001 (sc), vehicle: saline) was 109 % of control, the T/C (dose: 20.0 mg/kg/injection, schedule: Q## X003 (ip), vehicle: saline) was 192 % of control and the T/C (dose: 20.0 mg/kg/injection, schedule: Q## X032 (ip), vehicle: saline) was 124 % of control. The T/C (dose: 22.5 mg/kg/injection, schedule: Q## X004 (ip), vehicle: saline) was 167 % of control, the T/C (dose: 24.0 mg/kg/injection, schedule: Q01DX001 (ip), vehicle: saline) was 154 % of control and the T/C (dose: 26.0 mg/kg/injection, schedule: Q01DX001 (ip), vehicle: carboxymethylcellulose (CMC)) was 151 % of control. For the same compound, the T/C (dose: 27.0 mg/kg/injection, schedule: Q01DX001 (oral), vehicle: saline) was 116 % of control, the T/C (dose: 30.0 mg/kg/injection, schedule: Q01DX001 (ip), vehicle: carboxymethylcellulose (CMC)) was 157 % of control and the T/C (dose: 30.0 mg/kg/injection, schedule: Q01DX001 (ip), vehicle: saline) was 150 % of control and 162 % of control. For the same compound, the T/C (dose: 30.0 mg/kg/injection, schedule: Q01DX001 (sc), vehicle: saline) was 121 % of control, the T/C (dose: 30.0 mg/kg/injection, schedule: Q01DX Z (ip), vehicle: carboxymethylcellulose (CMC)) was 95 % of control and the T/C (dose: 30.0 mg/kg/injection, schedule: Q## X003 (ip), vehicle: saline) was 182 % of control. The T/C (dose: 32.0 mg/kg/injection, schedule: Q02DX008 (ip), vehicle: saline) was 111 % of control, the T/C (dose: 32.0 mg/kg/injection, schedule: Q## X008 (ip), vehicle: saline) was 185 % of control and the T/C (dose: 32.0 mg/kg/injection, schedule: Q## X016 (ip), vehicle: saline) was 151 % of control. For the same compound, the T/C (dose: 32.0 mg/kg/injection, schedule: Q## X032 (ip), vehicle: saline) was 168 % of control and 169 % of control, the T/C (dose: 36.0 mg/kg/injection, schedule: Q01DX009 (oral), vehicle: saline) was 106 % of control and the T/C (dose: 40.0 mg/kg/injection, schedule: Q01DX001 (oral), vehicle: saline) was 118 % of control. For the same compound, the T/C (dose: 40.0 mg/kg/injection, schedule: Q## X032 (ip), vehicle: saline) was 166 % of control, the T/C (dose: 45.0 mg/kg/injection, schedule: Q01DX001 (ip), vehicle: carboxymethylcellulose (CMC)) was 157 % of control and the T/C (dose: 48.0 mg/kg/injection, schedule: Q01DX009 (oral), vehicle: saline) was 90 % of control. For the same compound, the T/C (dose: 48.0 mg/kg/injection, schedule: Q## X008 (ip), vehicle: saline) was 191 % of control, the T/C (dose: 60.0 mg/kg/injection, schedule: Q01DX001 (oral), vehicle: saline) was 124 % of control and the T/C (dose: 64.0 mg/kg/injection, schedule: Q## X008 (ip), vehicle: saline) was 204 % of control and 229 % of control. For the same compound, the T/C (dose: 64.0 mg/kg/injection, schedule: Q## X024 (ip), vehicle: saline) was 88 % of control, the T/C (dose: 90.0 mg/kg/injection, schedule: Q01DX001 (oral), vehicle: saline) was 124 % of control and the T/C (dose: 90.0 mg/kg/injection, schedule: Q01DX001 (sc), vehicle: saline) was 118 % of control. The T/C (dose: 96.0 mg/kg/injection, schedule: Q## X008 (ip), vehicle: saline) was 114 % of control, the T/C [1] was 117 % of control and the T/C (dose: 120.0 mg/kg/injection, schedule: Q01DX001 (ip), vehicle: saline) was 113 % of control and 87 % of control. For the same compound, the T/C (dose: 180.0 mg/kg/injection, schedule: Q01DX001 (oral), vehicle: saline) was 101 % of control and the T/C (dose: 360.0 mg/kg/injection, schedule: Q01DX001 (oral), vehicle: saline) was 92 % of control.
`Nc1ccn(C2OC(COC(c3ccccc3)(c3ccccc3)c3ccccc3)C(O)C2O)c(=O)n1` (centres undefined) was tested, and the T/C (dose: 100.0 mg/kg/injection, schedule: Q01DX005 (ip), vehicle: saline) was 101 % of control and the T/C (dose: 200.0 mg/kg/injection, schedule: Q01DX005 (ip), vehicle: saline) was 112 % of control.
In the case of `COC(=O)/C=C(\C)Nc1ccc(Cc2ccc(N/C(C)=C/C(=O)OC)cc2)cc1`, the T/C [1] is reported as 95 % of control and the T/C (dose: 200.0 mg/kg/injection, schedule: Q01DX001 (ip), vehicle: saline) is reported as 86 % of control.
